Here are results for 1 compound from article PMC9605737, “Identification of 6ω-cyclohexyl-2-(phenylamino carbonylmethylthio)pyrimidin-4(3H)-ones targeting the ZIKV NS5 RNA dependent RNA polymerase” (Frontiers in Chemistry, 2022).

As usually defined, the IC50 is the concentration that inhibits the measured activity by half. A word on the EC50: it is the concentration needed to bring the measured effect to its halfway point.

In one assay the test system is HCV NS5B RdRp. The note with it: ref Shen (2015); cited from earlier work.
Another assay has as its target T1, ZIKV NS5 protein (Zika virus, UniProt A0A024B7W1).
T1 construct: endogenous in cells; host or cells: Vero cells infected with ZIKV
Nature of the assay: Cell thermal shift assay (CETSA) with WB detection. The settings on record: 50 μM, lysate of ZIKV-infected Vero cells, 60 min; DMSO control 42.3°C. The class given is binding. How it is done: Cell thermal shift assay (CETSA) experiments are often used to detect the binding of intracellular drugs to target proteins. The assay was based on the principle of ligand-induced changes in protein thermal stability. The stability of the protein is evaluated by comparing the melting curves between the control group and the experimental group, thus assessing the interaction of the compound with the target protein.
Therefore, in order to further verify the interaction between 4w and ZIKV NS5, ZIKV-infected cell were treated with 4w (at 50 μM concentration), then total protein was incubation for 60 min at room temperature, and it was divided into nine equal parts. The same volume of DMSO was added as a control, and the treated protein was heated in a temperature gradient and then detected ZIKV NS5 protein by WB assay (Figure 5A).
Vero cells were inoculated in a 10 cm cell culture dish and cultured overnight, and after infection with ZIKV (MOI ≈2), maintenance medium was added to continue culturing for 3 days. Detergent-free protein lysis buffer (25 mM HEPES, 20 mM MgCl2, 2 mM DTT) was added, and cells were lysed by sonication. […] The supernatants were collected to prepare the samples, and the binding of 4w and ZIKV NS5 protein was analyzed by Western blotting ([Chen et al., 2020]; [Chen et al., 2021]).

In another assay the test system is ZIKV RNA. In words: qRT-PCR viral load in supernatant of ZIKV-infected A549 cells. It is filed as cell-based. The settings on record: Zika virus, A549, read-out: EC50, inhibition of ZIKV RNA replication. The source says:
In order to re-verify the inhibitory effect of 4w on ZIKV at the molecular level, we used ZIKV to infect cell lines of different origins (A549, Vero, Huh7 cells) and then treated with 4w in a concentration gradient. The change of viral load in the supernatant of cells after treatment was detected by qRT-PCR method.
Cells were infected with ZIKV SZ-WIV01 and then treated with 4w. The viral load in the supernatant was detected by Quantitative real-time polymerase chain reaction (qRT-PCR) at in different time periods after infection. Then the RNA from culture supernatant was extracted using the EasyPure ® Viral DNA/RNA Kit (TransGen Biotech, China) following the manufacturer’s instructions. Intracellular RNA extraction was according to trizol method. A one-step qRT-PCR kit RNA-direct™ Realtime PCR Master Mix (TOYOBO, Japan) and TaqMan probe were used to quantify the viral RNA produced. The primers (NS5 ZIKV 1086F: 5′-CCGCTGCCCAACACAAG-3′ and NS5 ZIKV 1086R: 3′-[…] C-5′) and probe (5′-FAM-[…]-TAMRA -3′) were used for amplification of the ZIKV NS5 region. A standard curve of the serial dilutions was used to quantify the viral RNA yield.
The 50% effective concentration (EC50) and 50% cytotoxic concentration (CC50) of the compound were calculated according to the Reed and Muench method, inhibition rate of ZIKV RNA yield- [(1-drug treatment/positive control) × 100]. […]

T1 sequence (A0A024B7W1 2521-3423): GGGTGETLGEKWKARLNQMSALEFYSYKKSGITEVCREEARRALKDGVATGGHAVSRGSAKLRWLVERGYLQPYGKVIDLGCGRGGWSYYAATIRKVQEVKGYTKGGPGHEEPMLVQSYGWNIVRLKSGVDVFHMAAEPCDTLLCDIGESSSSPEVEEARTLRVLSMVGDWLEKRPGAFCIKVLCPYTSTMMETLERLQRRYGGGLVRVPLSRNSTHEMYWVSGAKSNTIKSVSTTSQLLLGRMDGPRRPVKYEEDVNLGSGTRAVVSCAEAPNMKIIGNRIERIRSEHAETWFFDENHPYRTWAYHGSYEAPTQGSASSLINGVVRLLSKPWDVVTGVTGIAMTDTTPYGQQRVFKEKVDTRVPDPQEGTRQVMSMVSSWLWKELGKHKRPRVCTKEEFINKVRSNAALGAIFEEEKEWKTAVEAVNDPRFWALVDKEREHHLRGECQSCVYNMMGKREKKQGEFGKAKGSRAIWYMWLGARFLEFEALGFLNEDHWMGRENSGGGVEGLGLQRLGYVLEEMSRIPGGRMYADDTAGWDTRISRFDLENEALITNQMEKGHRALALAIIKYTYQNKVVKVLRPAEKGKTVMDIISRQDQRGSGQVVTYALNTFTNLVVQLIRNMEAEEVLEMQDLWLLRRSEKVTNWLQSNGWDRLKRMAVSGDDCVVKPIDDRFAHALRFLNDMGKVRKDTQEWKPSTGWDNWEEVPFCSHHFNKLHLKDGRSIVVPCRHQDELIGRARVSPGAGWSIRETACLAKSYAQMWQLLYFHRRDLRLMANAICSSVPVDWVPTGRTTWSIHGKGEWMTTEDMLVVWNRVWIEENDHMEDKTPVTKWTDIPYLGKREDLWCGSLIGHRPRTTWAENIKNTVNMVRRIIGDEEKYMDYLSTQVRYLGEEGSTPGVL

`CCc1c(C2CCCCC2)nc(SCC(=O)Nc2cc(F)cc(F)c2)[nH]c1=O` [Compound 4w, 2-{[4-cyclohexyl-5-ethyl-6-oxo-1,6-dihydropyrimidin-2-yl]thio}-N-(3,5-difluorophenyl)acetamide]: the IC50 in the assay on HCV NS5B RdRp was 102 nM. On ZIKV NS5 protein, the “apparent aggregation temperature (Tagg) of ZIKV NS5 protein” value came to 49.3 °C. Also, the EC50 with ZIKV RNA was found to be 5180 ± 690 nM.
